One may read the IC50 as the point on the concentration scale where inhibition reaches its midpoint.

The structures appear in SMILES notation. Like-named read-outs stand apart in the source and are kept apart here.

The values below come from patent publication US11708344B2, “Flavone derivatives for the treatment and prophylaxis of hepatitis B virus disease” (Hoffmann-La Roche Inc., priority 2018, dated 2023).

The test system of series [1] is HBeAg (surrogate marker for cccDNA) in HepDES19 cells. As to the kind of experiment: Engineered HepDES19 primary screen assay (HBeAg ELISA). In kind it is cell-based, HBV. The gist of the method:
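IC50 values come from 4-parameter logistic fits of HBeAg ELISA signal, the cccDNA surrogate, with CCK-8 run in parallel for viability. Compounds at half-log dilutions with 1% DMSO were applied for 5 days at 37 °C to HepDES19 cells previously cultured 8 days without Tet.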
On the technique in general: In an ELISA, binding on a coated surface is turned into a signal by an enzyme label.

A short description of series [2]: Human microsome stability assay. In kind it is in vitro ADME. Conditions: human liver microsomes, 1 μM test compound, 0.5 mg/mL microsomal protein, 37° C., pH 7.4, 0-30 minutes. The gist of the method:
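Parent compound remaining was measured by LC-MS/MS at 0, 3, 6, 9, 15 and 30 min, following ACN quench. Reactions held 1 μM compound and 0.5 mg/mL human liver microsomal protein in pH 7.4 phosphate buffer at 37 °C, started by NADPH regeneration (1 mM NADP, 1 mM MgCl2); controls lacked NADPH.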
A general note: Liver microsomes are vesicles of endoplasmic reticulum, rich in cytochrome P450 enzymes.

The mark [3] stands for this setting: Hepatitis B virus, HepDES19, 120 h, read-out: IC50 (HBeAg level, HepDES19 primary screen assay), HepDES19 cells, 5 days compound incubation, HBeAg ELISA.

For the molecule `O=C(O)COCCCOc1cc(Cl)ccc1-c1cc(=O)c2cccc(Cl)c2o1` [Example C009, 2-[3-[5-chloro-2-(8-chloro-4-oxo-chromen-2-yl)phenoxy]propoxy]acetic acid], the IC50 in series [1] (setting [3]) was 2.66 µM. Moreover, in series [2], the “Clearance of Human microsome” value is recorded as 6.15 mL/min/kg.
`COc1cc(OCCCOCC(=O)O)c(-c2cc(=O)c3cccc(Cl)c3o2)cc1OC` [Example C012, 2-[3-[2-(8-chloro-4-oxo-chromen-2-yl)-4,5-dimethoxy-phenoxy]propoxy]acetic acid]: the IC50 in series [1] (setting [3]) turned out to be 5.26 µM. For the same molecule, the “Clearance of Human microsome” value in series [2] came to 6.15 mL/min/kg.
Regarding `Cc1cc(-c2cc(=O)c3cccc(Br)c3o2)c(OCCCOCC(=O)O)cc1Cl` [Example C018, 2-[3-[2-(8-bromo-4-oxo-chromen-2-yl)-5-chloro-4-methyl-phenoxy]propoxy]acetic acid], the IC50 in series [1] (setting [3]) turned out to be 4.82 µM. In series [2], the “Clearance of Human microsome” value turned out to be 6.74 mL/min/kg.
On the same counts, the results for `COc1cc(-c2cc(=O)c3cccc(Cl)c3o2)c(OCCOCC(=O)O)cc1Br` [Example C020, 2-[2-[5-bromo-2-(8-chloro-4-oxo-chromen-2-yl)-4-methoxy-phenoxy]ethoxy]acetic acid] are 5.55 µM and 6.15 mL/min/kg.
Turning to `Cc1cc(-c2cc(=O)c3cccc(Cl)c3o2)c(OCCOCC(=O)O)cc1Br` [Example C021, 2-[2-[5-bromo-2-(8-chloro-4-oxo-chromen-2-yl)-4-methyl-phenoxy]ethoxy]acetic acid], in series [1] (setting [3]), the half-inhibitory concentration (IC50) came to 9.25 µM. For the same molecule, the “Clearance of Human microsome” value in series [2] amounted to 7.66 mL/min/kg.
On to `COc1cc(OCCOCC(=O)O)c(-c2cc(=O)c3cccc(Cl)c3o2)cc1OC` [Example C022, 2-[2-[2-(8-chloro-4-oxo-chromen-2-yl)-4,5-dimethoxy-phenoxy]ethoxy]acetic acid], for which the half-inhibitory concentration (IC50) in series [1] (setting [3]) was determined as 5.53 µM. Further, in series [2], the “Clearance of Human microsome” value is reported as 6.15 mL/min/kg.
For `O=C(O)COCCOc1cc(OC(F)(F)F)ccc1-c1cc(=O)c2cccc(Cl)c2o1` [Example C023, 2-[2-[2-(8-chloro-4-oxo-chromen-2-yl)-5-(trifluoromethoxy)phenoxy]ethoxy]acetic acid], in series [1] (setting [3]), the IC50 worked out at 3.99 µM. In series [2], the “Clearance of Human microsome” value is recorded as 6.15 mL/min/kg.
The like results for `CC(CCOCC(=O)O)Oc1cc(C(F)(F)F)ccc1-c1cc(=O)c2cccc(Cl)c2o1` (stereo not drawn) [Example C024, 2-[3-[2-(8-chloro-4-oxo-chromen-2-yl)-5-(trifluoromethyl)phenoxy]butoxy]acetic acid] were, in that order, 0.909 µM and 6.15 mL/min/kg.
In the case of `O=c1cc(-c2ncc(Br)cc2OCCO[C@H]2C[C@H](C(=O)O)C2)oc2c(Cl)cccc12` [Example C027], the IC50 in series [1] (setting [3]) was 1.8 µM. In addition, the “Clearance of Human microsome” value in series [2] is 6.15 mL/min/kg.
For the molecule `O=c1cc(-c2ccc(Br)cc2OCCO[C@H]2C[C@@H](C(=O)O)C2)oc2c(Cl)cc(F)cc12` [Example C028, Cis-3-[2-[5-bromo-2-(8-chloro-6-fluoro-4-oxo-chromen-2-yl)phenoxy]ethoxy]cyclobutanecarboxylic acid], in series [1] (setting [3]), the concentration for half-maximal inhibition (IC50) was found to be 3.32 µM. Also, in series [2], the “Clearance of Human microsome” value turned out to be 8.85 mL/min/kg.
On the same counts, the results for `O=c1cc(-c2cc(Br)c(F)cc2OCCO[C@H]2C[C@@H](C(=O)O)C2)oc2c(Cl)cccc12` [Example C032-A, Cis-3-[2-[4-bromo-2-(8-chloro-4-oxo-chromen-2-yl)-5-fluoro-phenoxy]ethoxy]cyclobutanecarboxylic acid] are 19.2 µM and 9.6 mL/min/kg.
With `CCOc1ccc(-c2cc(=O)c3cccc(Cl)c3o2)c(OCCO[C@H]2C[C@@H](C(=O)O)C2)c1` [Example C035-A, Cis-3-[2-[2-(8-chloro-4-oxo-chromen-2-yl)-5-ethoxy-phenoxy]ethoxy]cyclobutanecarboxylic acid], the half-maximal inhibitory concentration (IC50) in series [1] (setting [3]) turned out to be 12.5 µM. For the same molecule, in series [2], the “Clearance of Human microsome” value was 8.64 mL/min/kg.
As for `CCOc1ccc(-c2cc(=O)c3cccc(Cl)c3o2)c(OCCO[C@H]2C[C@H](C(=O)O)C2)c1` [Example C035-B, Trans-3-[2-[2-(8-chloro-4-oxo-chromen-2-yl)-5-ethoxy-phenoxy]ethoxy]cyclobutanecarboxylic acid], the concentration for half-maximal inhibition (IC50) in series [1] (setting [3]) came out at 17.9 µM. In addition, the “Clearance of Human microsome” value in series [2] is 9.78 mL/min/kg.
With `O=c1cc(-c2cccc(F)c2OCCO[C@H]2C[C@@H](C(=O)O)C2)oc2c(Cl)cccc12` [Example C037-A, Cis-3-[2-[2-(8-chloro-4-oxo-chromen-2-yl)-6-fluoro-phenoxy]ethoxy]cyclobutanecarboxylic acid], the IC50 in series [1] (setting [3]) is 0.0975 µM. Further, the “Clearance of Human microsome” value in series [2] is listed as 6.15 mL/min/kg.
The like results for `O=c1cc(-c2cccc(F)c2OCCO[C@H]2C[C@H](C(=O)O)C2)oc2c(Cl)cccc12` [Example C037-B, Trans-3-[2-[2-(8-chloro-4-oxo-chromen-2-yl)-6-fluoro-phenoxy]ethoxy]cyclobutanecarboxylic acid] were, in that order, 0.531 µM and 6.15 mL/min/kg.
Consider `Cc1ccc(-c2cc(=O)c3cccc(Cl)c3o2)c(OCCO[C@H]2C[C@H](C(=O)O)C2)c1` [Example C038-B, Trans-3-[2-[2-(8-chloro-4-oxo-chromen-2-yl)-5-methyl-phenoxy]ethoxy]cyclobutanecarboxylic acid], for which the IC50 in series [1] (setting [3]) was 1.53 µM. Further, the “Clearance of Human microsome” value in series [2] is listed as 6.15 mL/min/kg.
For `COc1ccc(-c2cc(=O)c3cccc(Cl)c3o2)c(OCCO[C@H]2C[C@@H](C(=O)O)C2)c1` [Example C039-A, Cis-3-[2-[2-(8-chloro-4-oxo-chromen-2-yl)-5-methoxy-phenoxy]ethoxy]cyclobutanecarboxylic acid], the 50% inhibitory concentration (IC50) in series [1] (setting [3]) came to 8.91 µM. Further, the “Clearance of Human microsome” value in series [2] is on record as 6.15 mL/min/kg.
On to `COc1ccc(-c2cc(=O)c3cccc(Cl)c3o2)c(OCCO[C@H]2C[C@H](C(=O)O)C2)c1` [Example C039-B, Trans-3-[2-[2-(8-chloro-4-oxo-chromen-2-yl)-5-methoxy-phenoxy]ethoxy]cyclobutanecarboxylic acid], for which the IC50 in series [1] (setting [3]) worked out at 17.5 µM. Also, in series [2], the “Clearance of Human microsome” value amounted to 6.15 mL/min/kg.
In the case of `COc1cc(OCCO[C@H]2C[C@@H](C(=O)O)C2)c(-c2cc(=O)c3cccc(Cl)c3o2)cc1Br` [Example C040-A, Cis-3-[2-[4-bromo-2-(8-chloro-4-oxo-chromen-2-yl)-5-methoxy-phenoxy]ethoxy]cyclobutanecarboxylic acid], in series [1] (setting [3]), the IC50 was determined as 13.2 µM. Further, the “Clearance of Human microsome” value in series [2] came out at 8.52 mL/min/kg.
Take `O=c1cc(-c2cc(C(F)(F)F)c(Br)cc2OCCO[C@H]2C[C@@H](C(=O)O)C2)oc2c(Cl)cccc12` [Example C042-A]: in series [1] (setting [3]), the IC50 was determined as 12.7 µM. The “Clearance of Human microsome” value in series [2] is 7.57 mL/min/kg.
In the case of `O=c1cc(-c2cc(F)c(Br)cc2OCCO[C@H]2C[C@H](C(=O)O)C2)oc2c(Cl)cccc12` [Example C044-B, Trans-3-[2-[5-bromo-2-(8-chloro-4-oxo-chromen-2-yl)-4-fluoro-phenoxy]ethoxy]cyclobutanecarboxylic acid], the IC50 in series [1] (setting [3]) was determined as 1.57 µM. Also, the “Clearance of Human microsome” value in series [2] was 9.33 mL/min/kg.
In the case of `O=c1cc(-c2ccc(F)cc2OCCO[C@H]2C[C@@H](C(=O)O)C2)oc2c(Cl)cc(F)cc12` [Example C045-A, Cis-3-[2-[2-(8-chloro-6-fluoro-4-oxo-chromen-2-yl)-5-fluoro-phenoxy]ethoxy]cyclobutanecarboxylic acid], in series [1] (setting [3]), the IC50 was 2.62 µM. In addition, the “Clearance of Human microsome” value in series [2] amounted to 6.53 mL/min/kg.
Take `O=c1cc(-c2ccc(F)cc2OCCO[C@H]2C[C@H](C(=O)O)C2)oc2c(Cl)cc(F)cc12` [Example C045-B, Trans-3-[2-[2-(8-chloro-6-fluoro-4-oxo-chromen-2-yl)-5-fluoro-phenoxy]ethoxy]cyclobutanecarboxylic acid]: the IC50 in series [1] (setting [3]) came out at 2.88 µM. In addition, the “Clearance of Human microsome” value in series [2] is 9.43 mL/min/kg.
Turning to `O=c1cc(-c2ccccc2OCCO[C@H]2C[C@H](C(=O)O)C2)oc2c(Br)cccc12` [Example C046-B, Trans-3-[2-[2-(8-bromo-4-oxo-chromen-2-yl)phenoxy]ethoxy]cyclobutanecarboxylic acid], the IC50 in series [1] (read-out: IC50 (HBeAg level, HepDES19 primary screen assay), HepDES19 cells, 5 days compound incubation, HBeAg ELISA) was found to be 0.251 µM. In series [2], the “Clearance of Human microsome” value was 6.15 mL/min/kg.
Take `O=c1cc(-c2ccccc2OCCO[C@H]2C[C@@H](C(=O)O)C2)oc2c(C(F)(F)F)cccc12` [Example C047-A, Cis-3-[2-[2-[4-oxo-8-(trifluoromethyl)chromen-2-yl]phenoxy]ethoxy]cyclobutanecarboxylic acid]: the IC50 in series [1] (setting [3]) stood at 16.6 µM. Besides, the “Clearance of Human microsome” value in series [2] amounted to 6.15 mL/min/kg.
`O=c1cc(-c2ccccc2OCCO[C@H]2C[C@H](C(=O)O)C2)oc2c(C(F)(F)F)cccc12` [Example C047-B, Trans-3-[2-[2-[4-oxo-8-(trifluoromethyl)chromen-2-yl]phenoxy]ethoxy]cyclobutanecarboxylic acid]: the IC50 in series [1] (setting [3]) is 14 µM. The “Clearance of Human microsome” value in series [2] is 6.15 mL/min/kg.
For the molecule `Cc1ccc(OCCO[C@H]2C[C@@H](C(=O)O)C2)c(-c2cc(=O)c3cccc(Cl)c3o2)c1` [Example C050-A, Cis-3-[2-[2-(8-chloro-4-oxo-chromen-2-yl)-4-methyl-phenoxy]ethoxy]cyclobutanecarboxylic acid], the IC50 in series [1] (setting [3]) came to 15.6 µM. Besides, in series [2], the “Clearance of Human microsome” value is listed as 6.15 mL/min/kg.
